± gives the expanded uncertainty stated by the source.
Experiment: excess molar enthalpy (molar enthalpy of mixing); xn = mol fraction of the nth substance listed
Conditions: 303.15 K, 101 kPa, Liquid, Calvet calorimetry

BrCBr [dibromomethane] + CC#N
excess molar enthalpy (x1 = 0.1028): 0.0213 ± 0.000478 kcal/mol | excess molar enthalpy (x1 = 0.2166): 0.0349 ± 0.000478 kcal/mol | excess molar enthalpy (x1 = 0.3067): 0.0413 ± 0.000717 kcal/mol | excess molar enthalpy (x1 = 0.4007): 0.0428 ± 0.000717 kcal/mol | excess molar enthalpy (x1 = 0.5547): 0.0359 ± 0.000478 kcal/mol | excess molar enthalpy (x1 = 0.6564): 0.0256 ± 0.000478 kcal/mol | excess molar enthalpy (x1 = 0.7022): 0.0213 ± 0.000478 kcal/mol | excess molar enthalpy (x1 = 0.8786): 0.0055 ± 0.000239 kcal/mol

BrCBr [dibromomethane] + CC(=O)c1ccccc1
excess molar enthalpy (x1 = 0.1763): -0.0244 ± 0.000478 kcal/mol | excess molar enthalpy (x1 = 0.3362): -0.0354 ± 0.000478 kcal/mol | excess molar enthalpy (x1 = 0.4052): -0.0387 ± 0.000717 kcal/mol | excess molar enthalpy (x1 = 0.4229): -0.0382 ± 0.000478 kcal/mol | excess molar enthalpy (x1 = 0.5115): -0.0382 ± 0.000478 kcal/mol | excess molar enthalpy (x1 = 0.6248): -0.0361 ± 0.000478 kcal/mol | excess molar enthalpy (x1 = 0.7449): -0.0272 ± 0.000478 kcal/mol | excess molar enthalpy (x1 = 0.852): -0.0182 ± 0.000478 kcal/mol

c1ccoc1 [furan] + BrCBr
excess molar enthalpy (x2 = 0.1499): 0.0447 ± 0.000717 kcal/mol | excess molar enthalpy (x2 = 0.2828): 0.0554 ± 0.000717 kcal/mol | excess molar enthalpy (x2 = 0.3405): 0.0552 ± 0.000717 kcal/mol | excess molar enthalpy (x2 = 0.4247): 0.0507 ± 0.000717 kcal/mol | excess molar enthalpy (x2 = 0.6268): 0.0397 ± 0.000717 kcal/mol | excess molar enthalpy (x2 = 0.7204): 0.0344 ± 0.000478 kcal/mol | excess molar enthalpy (x2 = 0.8358): 0.0261 ± 0.000478 kcal/mol | excess molar enthalpy (x2 = 0.9381): 0.0131 ± 0.000239 kcal/mol
